# The CheMixHub ionic liquid set
# Several values for one entry are separate records, joined by “and”; a condition that tells them apart may be missing. Equal values may be shown once. ± gives the uncertainty stated by the source.
# Assay: xn = mol fraction of the nth substance listed
compound,measurement,setting,value
CCCO + CC[n+]1ccn(CCOC)c1.O=S(=O)([O-])C(F)(F)F,viscosity,"288.15 K, 101 kPa, x2 = 0",2.475 ± 0.053 mPa·s
same,viscosity,"293.15 K, 101 kPa, x2 = 0",2.185 ± 0.046 mPa·s
same,viscosity,"298.15 K, 101 kPa, x2 = 0",1.937 ± 0.041 mPa·s
same,viscosity,"303.15 K, 101 kPa, x2 = 0",1.723 ± 0.037 mPa·s
same,viscosity,"308.15 K, 101 kPa, x2 = 0",1.537 ± 0.033 mPa·s
same,viscosity,"313.15 K, 101 kPa, x2 = 0",1.377 ± 0.029 mPa·s
same,viscosity,"318.15 K, 101 kPa, x2 = 0",1.235 ± 0.026 mPa·s
CCCC[n+]1ccn(C)c1.N#C[N-]C#N + [I-].[Li+],electrical conductivity,"288.15 K, 101 kPa, x1 = 1",0.611 ± 0.061 S/m
same,electrical conductivity,"298.15 K, 101 kPa, x1 = 1",0.883 ± 0.089 S/m
same,electrical conductivity,"333.15 K, 101 kPa, x1 = 1",2.18 ± 0.22 S/m
CCCC[n+]1ccn(C)c1.N#C[N-]C#N + O=S(=O)([O-])C(F)(F)F.[Li+],electrical conductivity,"288.15 K, 101 kPa, x1 = 1",0.596 ± 0.06 S/m
same,electrical conductivity,"298.15 K, 101 kPa, x1 = 1",0.925 ± 0.093 S/m
same,electrical conductivity,"333.15 K, 101 kPa, x1 = 1",2.77 ± 0.28 S/m
C[n+]1ccn(CCCCCn2cc[n+](C)c2)c1.O=S(=O)([N-]S(=O)(=O)C(F)(F)F)C(F)(F)F.O=S(=O)([N-]S(=O)(=O)C(F)(F)F)C(F)(F)F + OCCOCCOCCOCCO,viscosity,"293.15 K, 101 kPa, x1 = 0.3283",178.4 ± 8 mPa·s
same,viscosity,"293.15 K, 101 kPa, x1 = 0.55",448 ± 33 mPa·s
same,viscosity,"293.15 K, 101 kPa, x1 = 0.7097",627 ± 54 mPa·s
same,viscosity,"293.15 K, 101 kPa, x1 = 1",1125 ± 120 mPa·s
same,viscosity,"303.15 K, 101 kPa, x1 = 0.3283",93.1 ± 2.7 mPa·s
same,viscosity,"303.15 K, 101 kPa, x1 = 0.55",233 ± 12 mPa·s
same,viscosity,"303.15 K, 101 kPa, x1 = 0.7097",316 ± 20 mPa·s and 318 ± 20 mPa·s
same,viscosity,"303.15 K, 101 kPa, x1 = 1",555 ± 45 mPa·s
same,viscosity,"313.15 K, 101 kPa, x1 = 0.3283",56.5 ± 1.3 mPa·s
same,viscosity,"313.15 K, 101 kPa, x1 = 0.55",128 ± 4.7 mPa·s
same,viscosity,"313.15 K, 101 kPa, x1 = 0.7097",177.9 ± 8 mPa·s and 180.1 ± 8.2 mPa·s
same,viscosity,"313.15 K, 101 kPa, x1 = 1",313 ± 20 mPa·s
same,viscosity,"323.15 K, 101 kPa, x1 = 0.3283",36.2 ± 0.9 mPa·s
same,viscosity,"323.15 K, 101 kPa, x1 = 0.55",81.7 ± 2.2 mPa·s
same,viscosity,"323.15 K, 101 kPa, x1 = 0.7097",107.7 ± 3.5 mPa·s
same,viscosity,"323.15 K, 101 kPa, x1 = 1",192.3 ± 9 mPa·s
same,viscosity,"333.15 K, 101 kPa, x1 = 0.3283",22.4 ± 0.5 mPa·s
same,viscosity,"333.15 K, 101 kPa, x1 = 0.55",54.9 ± 1.2 mPa·s
same,viscosity,"333.15 K, 101 kPa, x1 = 0.7097",67.9 ± 1.6 mPa·s
same,viscosity,"333.15 K, 101 kPa, x1 = 1",123.2 ± 4.4 mPa·s
O=[N+]([O-])[O-].O=[N+]([O-])[O-].O=[N+]([O-])[O-].[Al+3] + O + CC[NH3+].O=[N+]([O-])[O-],electrical conductivity,"233 K, 100 kPa, x1 = 0.1395, x2 = 0.5934",0.001 ± 0.001 S/m
same,electrical conductivity,"243 K, 100 kPa, x1 = 0.1395, x2 = 0.5934",0.006 ± 0.001 S/m
same,electrical conductivity,"243 K, 100 kPa, x1 = 0.2128, x2 = 0.7086",0.002 ± 0.001 S/m
same,electrical conductivity,"253 K, 100 kPa, x1 = 0.1395, x2 = 0.5934",0.025 ± 0.003 S/m
same,electrical conductivity,"253 K, 100 kPa, x1 = 0.2128, x2 = 0.7086",0.011 ± 0.001 S/m
same,electrical conductivity,"263 K, 100 kPa, x1 = 0.1395, x2 = 0.5934",0.077 ± 0.008 S/m
same,electrical conductivity,"263 K, 100 kPa, x1 = 0.2128, x2 = 0.7086",0.037 ± 0.004 S/m
same,electrical conductivity,"273 K, 100 kPa, x1 = 0.1395, x2 = 0.5934",0.18 ± 0.018 S/m
same,electrical conductivity,"273 K, 100 kPa, x1 = 0.2128, x2 = 0.7086",0.094 ± 0.009 S/m
same,electrical conductivity,"283 K, 100 kPa, x1 = 0.1395, x2 = 0.5934",0.354 ± 0.035 S/m
same,electrical conductivity,"283 K, 100 kPa, x1 = 0.2128, x2 = 0.7086",0.2 ± 0.02 S/m
same,viscosity,"288.15 K, 100 kPa, x1 = 0.1395, x2 = 0.5934",274 ± 25 mPa·s
same,viscosity,"288.15 K, 100 kPa, x1 = 0.2128, x2 = 0.7086",880 ± 110 mPa·s
same,electrical conductivity,"293 K, 100 kPa, x1 = 0.1395, x2 = 0.5934",0.615 ± 0.062 S/m
same,electrical conductivity,"293 K, 100 kPa, x1 = 0.2128, x2 = 0.7086",0.371 ± 0.037 S/m
same,viscosity,"293.15 K, 100 kPa, x1 = 0.1395, x2 = 0.5934",204 ± 13 mPa·s
same,viscosity,"293.15 K, 100 kPa, x1 = 0.2128, x2 = 0.7086",587 ± 64 mPa·s
same,viscosity,"298.15 K, 100 kPa, x1 = 0.1395, x2 = 0.5934",153.7 ± 8.1 mPa·s
same,viscosity,"298.15 K, 100 kPa, x1 = 0.2128, x2 = 0.7086",394 ± 36 mPa·s
same,electrical conductivity,"303 K, 100 kPa, x1 = 0.1395, x2 = 0.5934",0.974 ± 0.097 S/m
same,electrical conductivity,"303 K, 100 kPa, x1 = 0.2128, x2 = 0.7086",0.624 ± 0.062 S/m
same,viscosity,"303.15 K, 100 kPa, x1 = 0.1395, x2 = 0.5934",116.8 ± 5 mPa·s
same,viscosity,"303.15 K, 100 kPa, x1 = 0.2128, x2 = 0.7086",269 ± 20 mPa·s
same,viscosity,"308.15 K, 100 kPa, x1 = 0.1395, x2 = 0.5934",89.5 ± 3.1 mPa·s
same,viscosity,"308.15 K, 100 kPa, x1 = 0.2128, x2 = 0.7086",185 ± 11 mPa·s
same,electrical conductivity,"313 K, 100 kPa, x1 = 0.1395, x2 = 0.5934",1.43 ± 0.14 S/m
same,electrical conductivity,"313 K, 100 kPa, x1 = 0.2128, x2 = 0.7086",0.971 ± 0.097 S/m
same,viscosity,"313.15 K, 100 kPa, x1 = 0.1395, x2 = 0.5934",69.2 ± 2.2 mPa·s
same,viscosity,"313.15 K, 100 kPa, x1 = 0.2128, x2 = 0.7086",129.3 ± 6.1 mPa·s
same,electrical conductivity,"323 K, 100 kPa, x1 = 0.1395, x2 = 0.5934",2 ± 0.2 S/m
same,electrical conductivity,"323 K, 100 kPa, x1 = 0.2128, x2 = 0.7086",1.42 ± 0.14 S/m
same,electrical conductivity,"333 K, 100 kPa, x1 = 0.1395, x2 = 0.5934",2.66 ± 0.27 S/m
same,electrical conductivity,"333 K, 100 kPa, x1 = 0.2128, x2 = 0.7086",1.98 ± 0.2 S/m
same,electrical conductivity,"343 K, 100 kPa, x1 = 0.1395, x2 = 0.5934",3.41 ± 0.34 S/m
same,electrical conductivity,"343 K, 100 kPa, x1 = 0.2128, x2 = 0.7086",2.64 ± 0.26 S/m
same,electrical conductivity,"353 K, 100 kPa, x1 = 0.1395, x2 = 0.5934",4.25 ± 0.42 S/m
same,electrical conductivity,"353 K, 100 kPa, x1 = 0.2128, x2 = 0.7086",3.42 ± 0.34 S/m
same,electrical conductivity,"363 K, 100 kPa, x1 = 0.1395, x2 = 0.5934",5.17 ± 0.52 S/m
same,electrical conductivity,"363 K, 100 kPa, x1 = 0.2128, x2 = 0.7086",4.3 ± 0.43 S/m
same,electrical conductivity,"373 K, 100 kPa, x1 = 0.1395, x2 = 0.5934",6.16 ± 0.62 S/m
same,electrical conductivity,"373 K, 100 kPa, x1 = 0.2128, x2 = 0.7086",5.28 ± 0.53 S/m
